# Key:
# Assay in all cases: relative viability (nuclei count vs DMSO), 5 days (fraction); higher = more cells survive
# HCC-827 = system: HCC-827
# Summary of the method: (§1)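 Values are medians from duplicate plates. Each reflects relative viability, defined as the nuclei count of treated wells over that of vehicle wells. Lung cancer cell lines in 1536-well plates were pin-tool dosed one day after seeding with one drug alone or with a fixed anchor-drug dose plus five library-drug doses (not always all listed) in √10 steps, then fixed, stained and imaged at 4× after 5 days.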
# EPLC-272H = system: EPLC-272H
# Summary of the method: as §1
# 201T = system: 201T
# Summary of the method: as §1
# PC-14 = system: PC-14
# Summary of the method: as §1
# NCI-H647 = system: NCI-H647
# Summary of the method: as §1
# COR-L 105 = system: COR-L 105
# Summary of the method: as §1
# LC-2-ad = system: LC-2-ad
# Summary of the method: as §1
# NCI-H2405 = system: NCI-H2405
# Summary of the method: as §1
# NCI-H661 = system: NCI-H661
# Summary of the method: as §1
# LCLC-97TM1 = system: LCLC-97TM1
# Summary of the method: as §1
# ChaGo-K-1 = system: ChaGo-K-1
# Summary of the method: as §1
# NCI-H1666 = system: NCI-H1666
# Summary of the method: as §1
# HCC-78 = system: HCC-78
# Summary of the method: as §1
# NCI-H2126 = system: NCI-H2126
# Summary of the method: as §1
# RERF-LC-KJ = system: RERF-LC-KJ
# Summary of the method: as §1
# NCI-H23 = system: NCI-H23
# Summary of the method: as §1
# NCI-H650 = system: NCI-H650
# Summary of the method: as §1
# NCI-H1915 = system: NCI-H1915
# Summary of the method: as §1
# NCI-H2347 = system: NCI-H2347
# Summary of the method: as §1
# NCI-H2087 = system: NCI-H2087
# Summary of the method: as §1
# H3255 = system: H3255
# Summary of the method: as §1
# NCI-H520 = system: NCI-H520
# Summary of the method: as §1
smiles,measurement,setting,value
Cc1sc2c(c1C)C(c1ccc(Cl)cc1)=N[C@@H](CC(=O)OC(C)(C)C)c1nnc(C)n1-2 [JQ1] + CC(C)C[C@H](NC(=O)[C@H](Cc1ccccc1)NC(=O)c1cnccn1)B(O)O [Bortezomib] (partner 0.002 µM),relative viability,HCC-827; first compound 0.04 µM,0.929
same,relative viability,HCC-827; first compound 0.4 µM,0.743
same,relative viability,HCC-827; first compound 1.265 µM,1.25
same,relative viability,HCC-827; first compound 4 µM,0.928
same,relative viability,EPLC-272H; first compound 0.04 µM,0.915
same,relative viability,EPLC-272H; first compound 0.1265 µM,0.911
same,relative viability,EPLC-272H; first compound 0.4 µM,0.989
same,relative viability,EPLC-272H; first compound 1.265 µM,0.414
same,relative viability,EPLC-272H; first compound 4 µM,0.367
same,relative viability,201T; first compound 0.04 µM,1.14
same,relative viability,201T; first compound 0.1265 µM,0.643
same,relative viability,201T; first compound 0.4 µM,1.02
same,relative viability,201T; first compound 1.265 µM,0.859
same,relative viability,201T; first compound 4 µM,0.768
same,relative viability,PC-14; first compound 0.04 µM,0.811
same,relative viability,PC-14; first compound 0.1265 µM,0.901
same,relative viability,PC-14; first compound 0.4 µM,0.888
same,relative viability,PC-14; first compound 1.265 µM,0.346
same,relative viability,PC-14; first compound 4 µM,0.201
same,relative viability,NCI-H647; first compound 0.04 µM,0.678
same,relative viability,NCI-H647; first compound 0.1265 µM,0.521
same,relative viability,NCI-H647; first compound 0.4 µM,0.346
same,relative viability,NCI-H647; first compound 1.265 µM,0.0716
same,relative viability,NCI-H647; first compound 4 µM,0.102
same,relative viability,COR-L 105; first compound 0.04 µM,0.584
same,relative viability,COR-L 105; first compound 0.1265 µM,0.348
same,relative viability,COR-L 105; first compound 0.4 µM,0.3
same,relative viability,COR-L 105; first compound 1.265 µM,0.292
same,relative viability,COR-L 105; first compound 4 µM,0.342
same,relative viability,LC-2-ad; first compound 0.04 µM,0.853
same,relative viability,LC-2-ad; first compound 0.1265 µM,0.391
same,relative viability,LC-2-ad; first compound 0.4 µM,0.787
same,relative viability,LC-2-ad; first compound 1.265 µM,0.131
same,relative viability,LC-2-ad; first compound 4 µM,0.109
same,relative viability,NCI-H2405; first compound 0.04 µM,1.07
same,relative viability,NCI-H2405; first compound 0.1265 µM,0.628
same,relative viability,NCI-H2405; first compound 0.4 µM,1.03
same,relative viability,NCI-H2405; first compound 1.265 µM,0.827
same,relative viability,NCI-H2405; first compound 4 µM,0.678
same,relative viability,NCI-H661; first compound 0.04 µM,0.783
same,relative viability,NCI-H661; first compound 0.1265 µM,0.83
same,relative viability,NCI-H661; first compound 0.4 µM,0.576
same,relative viability,NCI-H661; first compound 1.265 µM,0.431
same,relative viability,NCI-H661; first compound 4 µM,0.537
same,relative viability,LCLC-97TM1; first compound 0.04 µM,0.492
same,relative viability,LCLC-97TM1; first compound 0.1265 µM,0.533
same,relative viability,LCLC-97TM1; first compound 0.4 µM,0.336
same,relative viability,LCLC-97TM1; first compound 1.265 µM,0.0995
same,relative viability,LCLC-97TM1; first compound 4 µM,0.0548
same,relative viability,ChaGo-K-1; first compound 0.04 µM,1.09
same,relative viability,ChaGo-K-1; first compound 0.4 µM,1.06
same,relative viability,ChaGo-K-1; first compound 1.265 µM,0.493
same,relative viability,ChaGo-K-1; first compound 4 µM,0.373
same,relative viability,NCI-H1666; first compound 0.04 µM,0.658
same,relative viability,NCI-H1666; first compound 0.1265 µM,0.698
same,relative viability,NCI-H1666; first compound 0.4 µM,0.543
same,relative viability,NCI-H1666; first compound 1.265 µM,0.428
same,relative viability,NCI-H1666; first compound 4 µM,0.443
same,relative viability,HCC-78; first compound 0.04 µM,0.53
same,relative viability,HCC-78; first compound 0.1265 µM,0.453
same,relative viability,HCC-78; first compound 0.4 µM,0.231
same,relative viability,HCC-78; first compound 1.265 µM,0.19
same,relative viability,HCC-78; first compound 4 µM,0.172
same,relative viability,NCI-H2126; first compound 0.04 µM,1.08
same,relative viability,NCI-H2126; first compound 0.1265 µM,1.01
same,relative viability,NCI-H2126; first compound 0.4 µM,1.14
same,relative viability,NCI-H2126; first compound 1.265 µM,0.981
same,relative viability,NCI-H2126; first compound 4 µM,0.966
same,relative viability,RERF-LC-KJ; first compound 0.04 µM,1.17
same,relative viability,RERF-LC-KJ; first compound 0.1265 µM,1.11
same,relative viability,RERF-LC-KJ; first compound 0.4 µM,1.13
same,relative viability,RERF-LC-KJ; first compound 1.265 µM,0.52
same,relative viability,RERF-LC-KJ; first compound 4 µM,0.415
same,relative viability,NCI-H23; first compound 0.04 µM,1.07
same,relative viability,NCI-H23; first compound 0.1265 µM,0.86
same,relative viability,NCI-H23; first compound 0.4 µM,0.666
same,relative viability,NCI-H23; first compound 1.265 µM,0.241
same,relative viability,NCI-H23; first compound 4 µM,0.332
same,relative viability,NCI-H650; first compound 0.04 µM,0.742
same,relative viability,NCI-H650; first compound 0.1265 µM,0.351
same,relative viability,NCI-H650; first compound 0.4 µM,0.432
same,relative viability,NCI-H650; first compound 1.265 µM,0.183
same,relative viability,NCI-H650; first compound 4 µM,0.184
same,relative viability,NCI-H1915; first compound 0.04 µM,1.02
same,relative viability,NCI-H1915; first compound 0.1265 µM,0.706
same,relative viability,NCI-H1915; first compound 0.4 µM,0.961
same,relative viability,NCI-H1915; first compound 1.265 µM,0.678
same,relative viability,NCI-H1915; first compound 4 µM,0.642
same,relative viability,NCI-H2347; first compound 0.04 µM,1.13
same,relative viability,NCI-H2347; first compound 0.1265 µM,0.934
same,relative viability,NCI-H2347; first compound 0.4 µM,0.841
same,relative viability,NCI-H2347; first compound 1.265 µM,0.564
same,relative viability,NCI-H2347; first compound 4 µM,0.404
same,relative viability,NCI-H2087; first compound 0.04 µM,0.832
same,relative viability,NCI-H2087; first compound 0.4 µM,0.943
same,relative viability,NCI-H2087; first compound 1.265 µM,0.553
same,relative viability,NCI-H2087; first compound 4 µM,0.416
same,relative viability,H3255; first compound 0.04 µM,0.628
same,relative viability,H3255; first compound 0.1265 µM,0.553
same,relative viability,H3255; first compound 0.4 µM,0.747
same,relative viability,H3255; first compound 1.265 µM,0.306
same,relative viability,H3255; first compound 4 µM,0.278
same,relative viability,NCI-H520; first compound 0.04 µM,0.527
same,relative viability,NCI-H520; first compound 0.1265 µM,0.242
same,relative viability,NCI-H520; first compound 0.4 µM,0.157
same,relative viability,NCI-H520; first compound 1.265 µM,0.167
same,relative viability,NCI-H520; first compound 4 µM,0.136

# Source: the supplement of paper PMC10307832
